Reference: patent publication US4020060A, “7-[α-Amino- ω-(3,4-methylenedioxyphenyl)acylamido]cephalosporanic acid derivatives” (Richardson-Merrell Inc., priority 1975, dated 1977)
Values after ≈ are worked out from the molar mass of the structure shown. Read-outs that look alike come from different tables or passages of the source.

How the values were obtained:
[1] = tested on: Salmonella schottmuelleri; assay: in vivo protection of mice challenged with a fatal bacterial infection; settings: sc, subcutaneous, 1 and 4 hours after challenge, read-out: dose required per treatment to protect fifty percent of the infected mice (ED50)
Description: (§1) The following example illustrates the in vivo activity of the compounds of this invention.
(§2) Several groups of 10 mice are challenged with a fatal bacterial infection. Various dose levels of the test compound are administered orally or subcutaneously to separate groups of these animals 1 and 4 hours after challenge. After three or four days, depending upon the test organism, the number of survivors are recorded at each dose level and the dose required per treatment to protect fifty percent of the infected mice (ED50) is calculated by the method described by Reed and Muench, Amer. J. Hyg. 27, 493-497 (1938).

Diplococcus pneumoniae [2] = assay: as above; settings: Streptococcus pneumoniae, 1 and 4 hours after challenge, read-out: dose required per treatment to protect fifty percent of the infected mice (ED50)
Description: as §1, §2

Streptococcus pyogenes [3] = assay: as above; settings: 1 and 4 hours after challenge, read-out: dose required per treatment to protect fifty percent of the infected mice (ED50)
Description: as §1, §2

Staphylococcus aureus = assay: in vitro minimal inhibitory concentration, two-fold serial dilutions in trypticase soy broth; assay type: cell-based; settings: 24 hours at 37° C.
Description: (§3) The following example illustrates the in vitro activity of the compounds of this invention.
(§4) Two-fold serial dilutions of the test compound are made in trypticase soy broth. A series of tubes of both containing different concentrations of the test compound are inoculated with the particular bacterial culture used for in vitro activity. The inoculated tubes are examined for the inhibition of bacterial growth after 24 hours of incubation at 37° C. The following table summarizes the minimal inhibitory concentration (MIC) for the various bacterial cultures tested with the compound 7-[2-amino-2-(3,4-methylenedioxyphenyl)acetamido]desacetoxycephalosporanicacid.

[4] = tested on: Salmonella schottmuelleri; assay: as above; assay type: cell-based; settings: 24 hours at 37° C.
Description: as §3, §4

Escherichia coli = assay: as above; assay type: cell-based; settings: 24 hours at 37° C.
Description: as §3, §4

Diplococcus pneumoniae [5] = assay: as above; assay type: cell-based; settings: Streptococcus pneumoniae, 24 hours at 37° C.
Description: as §3, §4

Streptococcus pyogenes [6] = assay: as above; assay type: cell-based; settings: 24 hours at 37° C.
Description: as §3, §4

CC1=C(C(=O)O)N2C(=O)C(NC(=O)C(N)c3ccc4c(c3)OCO4)C2SC1 (stereo not shown) [7-[2-Amino-2-(3,4-methylenedioxyphenyl)acetamido] desacetoxycephalosporanic acid]
ED50 [1]: 26 mg/kg | ED50 (Diplococcus pneumoniae [2]; po, per os): 45 mg/kg | ED50 (Diplococcus pneumoniae [2]; sc, subcutaneous): 40 mg/kg | ED50 (Streptococcus pyogenes [3]; po, per os): 1 mg/kg | ED50 (Streptococcus pyogenes [3]; sc, subcutaneous): 0.9 mg/kg | MIC (Staphylococcus aureus): 1.6 µg/mL (≈ 4.09 µM) | MIC [4]: 50 µg/mL (≈ 128 µM) | MIC (Escherichia coli): 50 µg/mL (≈ 128 µM) | MIC (Diplococcus pneumoniae [5]): 3.1 µg/mL (≈ 7.92 µM) | MIC (Streptococcus pyogenes [6]): 0.8 µg/mL (≈ 2.04 µM)
